What all share (format): functional
For one assay, the system named is Kluyveromyces marxianus. In words: Antifungal activity against Candida pseudotropicalis by dilution method.
For assay [1], the system named is Staphylococcus aureus. Kind of assay: Antibacterial activity against Staphylococcus aureus SA52 isolate.
The test system of a further assay is Candida albicans. In words: Antifungal activity against Candida albicans by dilution method.
A further assay relates to Enterococcus faecalis. In words: Antibacterial activity against Enterococcus faecalis ATCC 29212.
Assay [2] deals with Mycobacterium tuberculosis. Kind of assay: Antibacterial activity against Mycobacterium tuberculosis H190 by dilution method.
For assay [3], the system named is Mycobacterium tuberculosis. Kind of assay: Antibacterial activity against Mycobacterium tuberculosis H160 by dilution method. To be noted: Mycobacterium tuberculosis, H160; read-out: MIC.
A further assay concerns Escherichia coli. In words: Antibacterial activity against Escherichia coli ATCC 25922.
Assay [4] deals with Staphylococcus aureus. Kind of assay: Antibacterial activity against Staphylococcus aureus SA85 isolate.
Assay [5] deals with Staphylococcus aureus. Kind of assay: Antibacterial activity against Staphylococcus aureus ATCC 105487.
The subject of assay [6] is Mycobacterium tuberculosis. Kind of assay: Antibacterial activity against Mycobacterium tuberculosis H37Rv by dilution method. To be noted: Mycobacterium tuberculosis, H37Rv; read-out: MIC.
Assay [7] deals with Staphylococcus aureus. In words: Antibacterial activity against Staphylococcus aureus ATCC 25923.
The test system of a further assay is Bacillus subtilis. Kind of assay: Antibacterial activity against Bacillus subtilis ATCC 6633. To be noted: Bacillus subtilis, ATCC 6633; read-out: MIC.
The subject of another assay is Pseudomonas aeruginosa. In words: Antibacterial activity against Pseudomonas aeruginosa ATCC 27753.
Assay [8] relates to Staphylococcus aureus. In words: Antibacterial activity against Staphylococcus aureus SA87 isolate. Conditions: Staphylococcus aureus; read-out: MIC.

Molecules are shown by their SMILES. Values after ≈ are worked out from the molar mass of the structure shown.

A word on the MIC: it is the lowest concentration that inhibits growth of the organism. With `CCCCCCCC(=O)OCC(CO[C@@H]1O[C@H](CO)[C@H](O)[C@H](O)[C@H]1O)OC(=O)CCCCCCC` (some centres undefined), the MIC against Kluyveromyces marxianus was greater than 128 µg/mL; with Staphylococcus aureus [1], greater than 128 µg/mL; against Candida albicans it was greater than 128 µg/mL; against Enterococcus faecalis, 32 µg/mL (≈ 63.2 µM); in [2], 128 µg/mL (≈ 253 µM); in [3] it was 128 µg/mL (≈ 253 µM). Also, the MIC in the assay with Escherichia coli is greater than 128 µg/mL; in the assay with Staphylococcus aureus [4] it was 32 µg/mL (≈ 63.2 µM); against Staphylococcus aureus [5] it was 32 µg/mL (≈ 63.2 µM); in [6], 128 µg/mL (≈ 253 µM); in the assay with Staphylococcus aureus [7], 32 µg/mL (≈ 63.2 µM); in the assay on Bacillus subtilis, 32 µg/mL (≈ 63.2 µM). The MIC with Pseudomonas aeruginosa was greater than 128 µg/mL; with Staphylococcus aureus [8], 32 µg/mL (≈ 63.2 µM).

Take `CCCCCCCCCC(=O)OCC(CO[C@@H]1O[C@H](CO)[C@H](O)[C@H](O)[C@H]1O)OC(=O)CCCCCCCCC` (some centres undefined): the MIC in the assay with Kluyveromyces marxianus was greater than 128 µg/mL; against Staphylococcus aureus [1], greater than 128 µg/mL; with Candida albicans, greater than 128 µg/mL; in the assay with Enterococcus faecalis it was greater than 128 µg/mL; in assay [2], 64 µg/mL (≈ 114 µM); in [3] it was 64 µg/mL (≈ 114 µM). The MIC with Escherichia coli was greater than 128 µg/mL; against Staphylococcus aureus [4], 32 µg/mL (≈ 56.9 µM); in the assay with Staphylococcus aureus [5], greater than 128 µg/mL; in assay [6], 128 µg/mL (≈ 227 µM); in the assay with Staphylococcus aureus [7], 32 µg/mL (≈ 56.9 µM); with Bacillus subtilis, greater than 128 µg/mL. Further, the results for the MIC against Pseudomonas aeruginosa and in the assay on Staphylococcus aureus [8] were greater than 128 µg/mL and 128 µg/mL (≈ 227 µM), respectively.

Take `CC/C=C\C/C=C\C/C=C\CCCCCCCC(=O)OCC(CO[C@@H]1O[C@H](CO)[C@@H](O)[C@H](O)[C@H]1O)OC(=O)CCCCCCC/C=C\C/C=C\C/C=C\CC` (some centres undefined): the MIC (in the assay on Kluyveromyces marxianus; in the assay on Staphylococcus aureus [1]; against Candida albicans; against Enterococcus faecalis; in assay [2]; in [3]) was greater than 128 µg/mL throughout. Besides, the MIC (against Escherichia coli; against Staphylococcus aureus [4]; against Staphylococcus aureus [5]; in [6]; against Staphylococcus aureus [7]; with Bacillus subtilis) was greater than 128 µg/mL in each case. The MIC against Pseudomonas aeruginosa and with Staphylococcus aureus [8] was greater than 128 µg/mL throughout.

Regarding `CCCCCCCCCCCCCC(=O)OCC(CO[C@@H]1O[C@H](CO)[C@H](O)[C@H](O)[C@H]1O)OC(=O)CCCCCCCCCCCCC` (some centres undefined), the MIC (against Kluyveromyces marxianus; in the assay on Staphylococcus aureus [1]; against Candida albicans; in the assay on Enterococcus faecalis; in [2]; in assay [3]) was greater than 128 µg/mL throughout. Moreover, the MIC (against Escherichia coli; against Staphylococcus aureus [4]; in the assay on Staphylococcus aureus [5]; in assay [6]; in the assay on Staphylococcus aureus [7]; with Bacillus subtilis) was greater than 128 µg/mL throughout. The MIC in the assay with Pseudomonas aeruginosa and with Staphylococcus aureus [8] was greater than 128 µg/mL throughout.

For `CCCCCCCCCCCCCCCCCC(=O)OCC(CO[C@@H]1O[C@H](CO)[C@H](O)[C@H](O)[C@H]1O)OC(=O)CCCCCCCCCCCCCCCCC` (some centres undefined), the MIC (in the assay on Kluyveromyces marxianus; in the assay with Staphylococcus aureus [1]; in the assay with Candida albicans; with Enterococcus faecalis; in assay [2]; in [3]) was greater than 128 µg/mL throughout. Moreover, the MIC (against Escherichia coli; against Staphylococcus aureus [4]; with Staphylococcus aureus [5]; in assay [6]; in the assay on Staphylococcus aureus [7]; in the assay on Bacillus subtilis) was greater than 128 µg/mL in each case. For the same molecule, the MIC against Pseudomonas aeruginosa and with Staphylococcus aureus [8] was greater than 128 µg/mL throughout.

Turning to `CCCCCCCCCCCC(=O)OCC(CO[C@@H]1O[C@H](CO)[C@H](O)[C@H](O)[C@H]1O)OC(=O)CCCCCCCCCCC` (some centres undefined), the MIC (in the assay with Kluyveromyces marxianus; in the assay on Staphylococcus aureus [1]; in the assay with Candida albicans; against Enterococcus faecalis; in [2]; in assay [3]) was greater than 128 µg/mL each time. Further, the MIC (with Escherichia coli; in the assay with Staphylococcus aureus [4]; with Staphylococcus aureus [5]; in [6]; against Staphylococcus aureus [7]; with Bacillus subtilis) was greater than 128 µg/mL each time. Besides, the MIC in the assay with Pseudomonas aeruginosa and in the assay with Staphylococcus aureus [8] was greater than 128 µg/mL each time.
